Results: the supplement of paper PMC8612539
Values after ≈ are worked out from the molar mass of the structure shown.

Key:
Enterococcus spp. = test: minimum inhibitory concentration (MIC)
Method: (§1)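 Broth microdilution MIC (Sensititre BOPO7F bovine plate, CLSI methods) of 19 antimicrobials against field isolates of P. multocida, M. haemolytica, H. somni (deep nasopharyngeal swabs) and E. coli, Enterococcus spp. (rectal swabs) from weaned dairy heifers. Incubation 16-24 h at 35 C. MIC is the lowest concentration preventing visible growth. Values with <= or > lie at the tested range limits. Trimethoprim-sulfamethoxazole is given as the trimethoprim component of a 1:19 mixture.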

Pasteurella multocida = test: minimum inhibitory concentration (MIC)
Method: as §1

CC[C@H]1OC(=O)C[C@@H](O)[C@H](C)[C@@H](O[C@@H]2O[C@H](C)[C@@H](O)[C@H](N(C)C)[C@H]2O)[C@@H](CCN2CCCCC2)C[C@@H](C)C(=O)/C=C/C(C)=C/[C@@H]1CN1CCCCC1 [Tildipirosin]
minimum inhibitory concentration [µg/mL]
Settings	Enterococcus spp.	Pasteurella multocida
isolate (source animal id): 2	8 (≈ 10.9 µM)	–
isolate (source animal id): 10	–	> 16
isolate (source animal id): 11	–	> 16
isolate (source animal id): 12	–	> 16
isolate (source animal id): 19	–	> 16
isolate (source animal id): 23	–	> 16
isolate (source animal id): 26	–	> 16
isolate (source animal id): 35	> 16	–
isolate (source animal id): 42	8 (≈ 10.9 µM)	–
isolate (source animal id): 44	16 (≈ 21.8 µM)	–
isolate (source animal id): 79	16 (≈ 21.8 µM)	–
isolate (source animal id): 88	8 (≈ 10.9 µM)	–
isolate (source animal id): 91	8 (≈ 10.9 µM)	–
isolate (source animal id): 92	16 (≈ 21.8 µM)	–
isolate (source animal id): 98	–	> 16
isolate (source animal id): 104	–	> 16
isolate (source animal id): 111	8 (≈ 10.9 µM)	–
isolate (source animal id): 115	–	> 16
isolate (source animal id): 117	–	> 16
isolate (source animal id): 118	–	> 16
isolate (source animal id): 121	–	> 16
isolate (source animal id): 122	> 16	–
isolate (source animal id): 123	16 (≈ 21.8 µM)	–
isolate (source animal id): 124	–	> 16
isolate (source animal id): 125	–	> 16
isolate (source animal id): 128	–	> 16
isolate (source animal id): 131	–	> 16
isolate (source animal id): 133	8 (≈ 10.9 µM)	–
isolate (source animal id): 135	–	> 16
isolate (source animal id): 136	–	> 16
isolate (source animal id): 140	–	> 16
isolate (source animal id): 144	–	> 16
isolate (source animal id): 146	–	> 16
isolate (source animal id): 150	–	> 16
isolate (source animal id): 151	–	> 16
isolate (source animal id): 153	–	> 16
isolate (source animal id): 155	–	> 16
isolate (source animal id): 157	–	> 16
isolate (source animal id): 158	> 16	–
isolate (source animal id): 160	–	> 16
isolate (source animal id): 164	–	> 16
isolate (source animal id): 165	–	> 16
isolate (source animal id): 167	–	≤ 1
isolate (source animal id): 168	> 16	> 16
isolate (source animal id): 169	16 (≈ 21.8 µM)	≤ 1
isolate (source animal id): 170	–	2 (≈ 2.72 µM)
isolate (source animal id): 171	16 (≈ 21.8 µM)	≤ 1
isolate (source animal id): 172	–	≤ 1
isolate (source animal id): 173	–	> 16
isolate (source animal id): 174	–	≤ 1
isolate (source animal id): 175	> 16	≤ 1
isolate (source animal id): 176	–	≤ 1
isolate (source animal id): 177	> 16	≤ 1
isolate (source animal id): 178	–	≤ 1
isolate (source animal id): 179	–	≤ 1
isolate (source animal id): 181	16 (≈ 21.8 µM)	–
isolate (source animal id): 182	16 (≈ 21.8 µM)	2 (≈ 2.72 µM)
isolate (source animal id): 183	8 (≈ 10.9 µM)	–
isolate (source animal id): 187	16 (≈ 21.8 µM)	–
isolate (source animal id): 190	16 (≈ 21.8 µM)	–
isolate (source animal id): 192	–	≤ 1
isolate (source animal id): 193	–	≤ 1
isolate (source animal id): 194	16 (≈ 21.8 µM)	–
isolate (source animal id): 195	16 (≈ 21.8 µM)	≤ 1
isolate (source animal id): 196	–	≤ 1
isolate (source animal id): 197	16 (≈ 21.8 µM)	2 (≈ 2.72 µM)
isolate (source animal id): 198	–	> 16
isolate (source animal id): 199	–	≤ 1
isolate (source animal id): 200	–	≤ 1
isolate (source animal id): 201	–	≤ 1
isolate (source animal id): 203	–	≤ 1
isolate (source animal id): 204	–	≤ 1
isolate (source animal id): 205	–	> 16
isolate (source animal id): 206	–	≤ 1
isolate (source animal id): 207	–	≤ 1
isolate (source animal id): 208	–	≤ 1
isolate (source animal id): 209	–	≤ 1
isolate (source animal id): 210	–	> 16
isolate (source animal id): 211	16 (≈ 21.8 µM)	–
isolate (source animal id): 213	–	2 (≈ 2.72 µM)
isolate (source animal id): 214	16 (≈ 21.8 µM)	–
isolate (source animal id): 216	–	≤ 1
isolate (source animal id): 222	16 (≈ 21.8 µM)	–
isolate (source animal id): 223	8 (≈ 10.9 µM)	> 16
isolate (source animal id): 227	–	≤ 1
isolate (source animal id): 228	> 16	–
isolate (source animal id): 229	–	> 16
isolate (source animal id): 230	> 16	–
isolate (source animal id): 233	–	> 16
isolate (source animal id): 234	–	> 16
isolate (source animal id): 235	> 16	–
isolate (source animal id): 236	8 (≈ 10.9 µM)	–
isolate (source animal id): 237	–	> 16
isolate (source animal id): 239	8 (≈ 10.9 µM)	–
isolate (source animal id): 241	> 16	> 16
isolate (source animal id): 244	16 (≈ 21.8 µM)	–
isolate (source animal id): 245	–	> 16
isolate (source animal id): 246	16 (≈ 21.8 µM)	–
isolate (source animal id): 247	> 16	> 16
isolate (source animal id): 250	16 (≈ 21.8 µM)	> 16
isolate (source animal id): 252	> 16	–
isolate (source animal id): 254	–	> 16
isolate (source animal id): 255	–	> 16
isolate (source animal id): 258	–	≤ 1
isolate (source animal id): 261	–	> 16
isolate (source animal id): 262	–	> 16
isolate (source animal id): 268	> 16	–
isolate (source animal id): 269	–	≤ 1
isolate (source animal id): 270	–	> 16
isolate (source animal id): 274	–	> 16
isolate (source animal id): 275	–	> 16
isolate (source animal id): 276	–	> 16
isolate (source animal id): 277	–	≤ 1
isolate (source animal id): 278	–	> 16
isolate (source animal id): 279	–	> 16
isolate (source animal id): 280	–	> 16
isolate (source animal id): 282	8 (≈ 10.9 µM)	–
isolate (source animal id): 284	–	> 16
isolate (source animal id): 285	> 16	> 16
isolate (source animal id): 287	–	> 16
isolate (source animal id): 289	16 (≈ 21.8 µM)	–
isolate (source animal id): 290	16 (≈ 21.8 µM)	> 16
isolate (source animal id): 294	–	> 16
isolate (source animal id): 295	–	> 16
isolate (source animal id): 296	16 (≈ 21.8 µM)	> 16
isolate (source animal id): 298	8 (≈ 10.9 µM)	–
isolate (source animal id): 301	8 (≈ 10.9 µM)	–
isolate (source animal id): 307	–	> 16
isolate (source animal id): 310	> 16	> 16
isolate (source animal id): 311	–	> 16
isolate (source animal id): 312	–	> 16
isolate (source animal id): 313	–	> 16
isolate (source animal id): 315	–	> 16
isolate (source animal id): 316	–	> 16
isolate (source animal id): 320	8 (≈ 10.9 µM)	–
isolate (source animal id): 331	8 (≈ 10.9 µM)	–
isolate (source animal id): 333	16 (≈ 21.8 µM)	–
isolate (source animal id): 341	> 16	–
